Results from article PMC6420064 (Journal of medicinal chemistry, 2019).
“Also recorded” adds a separate entry of the source. One block for each compound: values may come before it.

Legend:
human GlyT2a = target: T1, human GlyT2a (Homo sapiens, UniProt Q9Y345); assay type: cell-based
T1 sequence (Q9Y345 1-797): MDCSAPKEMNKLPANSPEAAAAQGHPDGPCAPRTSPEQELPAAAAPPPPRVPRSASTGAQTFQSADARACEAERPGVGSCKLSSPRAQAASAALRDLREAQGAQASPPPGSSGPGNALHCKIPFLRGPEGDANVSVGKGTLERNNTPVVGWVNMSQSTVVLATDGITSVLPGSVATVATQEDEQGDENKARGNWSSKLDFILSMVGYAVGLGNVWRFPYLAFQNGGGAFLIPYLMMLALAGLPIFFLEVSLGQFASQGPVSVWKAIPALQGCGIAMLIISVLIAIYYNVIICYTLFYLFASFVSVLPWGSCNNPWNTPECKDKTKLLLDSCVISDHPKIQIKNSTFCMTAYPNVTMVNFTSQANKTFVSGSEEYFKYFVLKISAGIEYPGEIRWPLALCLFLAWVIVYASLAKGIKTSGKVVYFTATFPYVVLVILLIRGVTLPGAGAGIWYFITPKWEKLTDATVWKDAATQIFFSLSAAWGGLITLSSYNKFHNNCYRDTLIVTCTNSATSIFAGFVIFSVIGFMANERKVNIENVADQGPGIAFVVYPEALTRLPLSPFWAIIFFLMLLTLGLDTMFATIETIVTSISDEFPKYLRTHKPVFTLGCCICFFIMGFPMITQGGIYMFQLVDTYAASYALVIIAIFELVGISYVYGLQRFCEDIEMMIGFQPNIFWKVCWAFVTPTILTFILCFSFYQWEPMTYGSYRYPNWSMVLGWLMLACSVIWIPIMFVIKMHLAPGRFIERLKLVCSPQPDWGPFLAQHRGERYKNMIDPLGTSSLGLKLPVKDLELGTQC

GlyT2 [1] = conditions: read-out: GlyT2 IC50; cited from earlier work
[2] = tested on: nerve ligation rat model of neuropathic pain; assay type: in vivo; conditions: 30 mg/kg ip, compared to vehicle
GlyT1 = conditions: cited from earlier work
male Sprague Dawley rats = experiment: Side effects in the analgesia study; assay type: in vivo, rat; conditions: 30 mg/kg ip
[3] = tested on: sphingosine-1-phosphate receptor; experiment: Lipid receptor screen, agonist/antagonist
[4] = In vivo pharmacokinetic study, plasma and brain exposure; set-up: species or system rat
Adrenergic α2A receptor = target: T2, Adrenergic α2A receptor (Homo sapiens, UniProt P08913); experiment: Selectivity panel, displacement of radioactive ligand; assay type: binding; conditions: 10 μM
T2 sequence (P08913 1-465): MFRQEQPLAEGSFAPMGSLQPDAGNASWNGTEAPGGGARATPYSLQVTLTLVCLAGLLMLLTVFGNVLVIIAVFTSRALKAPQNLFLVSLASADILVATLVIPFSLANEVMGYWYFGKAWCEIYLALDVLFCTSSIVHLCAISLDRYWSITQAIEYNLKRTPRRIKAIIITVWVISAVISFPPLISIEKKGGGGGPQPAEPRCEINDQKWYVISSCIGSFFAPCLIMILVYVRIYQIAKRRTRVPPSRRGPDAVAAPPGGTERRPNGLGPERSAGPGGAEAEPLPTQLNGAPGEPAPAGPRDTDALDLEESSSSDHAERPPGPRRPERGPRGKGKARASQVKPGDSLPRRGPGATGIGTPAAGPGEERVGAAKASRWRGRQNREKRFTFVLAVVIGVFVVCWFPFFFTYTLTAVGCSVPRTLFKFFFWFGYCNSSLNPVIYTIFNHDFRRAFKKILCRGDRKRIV

CB2 = CB2 (Homo sapiens, UniProt P34972); experiment: Lipid receptor screen, agonist/antagonist
CB2, sequence (P34972 whole entry, species assumed): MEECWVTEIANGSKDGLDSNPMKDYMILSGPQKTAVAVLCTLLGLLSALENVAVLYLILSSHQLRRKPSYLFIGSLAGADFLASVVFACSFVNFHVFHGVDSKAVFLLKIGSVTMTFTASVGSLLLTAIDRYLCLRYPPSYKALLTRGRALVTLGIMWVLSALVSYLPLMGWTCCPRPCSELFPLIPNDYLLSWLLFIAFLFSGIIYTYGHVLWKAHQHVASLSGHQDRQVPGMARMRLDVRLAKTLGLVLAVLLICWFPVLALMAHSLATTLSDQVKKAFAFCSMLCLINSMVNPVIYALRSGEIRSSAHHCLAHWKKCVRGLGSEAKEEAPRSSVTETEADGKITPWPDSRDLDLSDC

Nav channels = experiment: Pain target screen, Nav channels
GlyT2 [5] = target: T3, GlyT2 (Homo sapiens, UniProt Q9Y345); experiment: Electrophysiology washout assay; assay type: cell-based; conditions: IC50 concentration of inhibitor, after 25 minutes wash
T3 sequence (Q9Y345 1-797): T1 sequence (Q9Y345 1-797)

μ opioid receptor (μOR) = μ opioid receptor (μOR) (Homo sapiens, UniProt P35372); experiment: Selectivity panel, displacement of radioactive ligand; assay type: binding; conditions: 10 μM
μ opioid receptor (μOR), sequence (P35372 whole entry, species assumed): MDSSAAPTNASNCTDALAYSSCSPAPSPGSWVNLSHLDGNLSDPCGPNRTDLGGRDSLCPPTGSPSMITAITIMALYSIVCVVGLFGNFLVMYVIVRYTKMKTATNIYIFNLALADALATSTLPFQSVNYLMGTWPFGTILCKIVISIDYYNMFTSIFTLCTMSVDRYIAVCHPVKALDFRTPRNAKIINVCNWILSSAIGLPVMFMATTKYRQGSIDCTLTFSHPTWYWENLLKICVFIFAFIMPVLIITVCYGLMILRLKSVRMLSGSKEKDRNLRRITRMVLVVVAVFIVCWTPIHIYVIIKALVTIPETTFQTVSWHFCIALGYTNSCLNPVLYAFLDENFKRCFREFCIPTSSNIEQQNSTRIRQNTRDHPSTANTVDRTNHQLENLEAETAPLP

Cav channels = experiment: Pain target screen, Cav channels
[6] = Stability in human liver microsomes; assay type: in vitro ADME; conditions: for half-life at 1 μM: human, human liver microsomes, pH 7.4
human GlyT1b = target: T4, human GlyT1b (Homo sapiens, UniProt P48067); assay type: cell-based; conditions: 3 μM (maximal concentration)
T4 sequence (P48067 1-652 isoform P48067-3): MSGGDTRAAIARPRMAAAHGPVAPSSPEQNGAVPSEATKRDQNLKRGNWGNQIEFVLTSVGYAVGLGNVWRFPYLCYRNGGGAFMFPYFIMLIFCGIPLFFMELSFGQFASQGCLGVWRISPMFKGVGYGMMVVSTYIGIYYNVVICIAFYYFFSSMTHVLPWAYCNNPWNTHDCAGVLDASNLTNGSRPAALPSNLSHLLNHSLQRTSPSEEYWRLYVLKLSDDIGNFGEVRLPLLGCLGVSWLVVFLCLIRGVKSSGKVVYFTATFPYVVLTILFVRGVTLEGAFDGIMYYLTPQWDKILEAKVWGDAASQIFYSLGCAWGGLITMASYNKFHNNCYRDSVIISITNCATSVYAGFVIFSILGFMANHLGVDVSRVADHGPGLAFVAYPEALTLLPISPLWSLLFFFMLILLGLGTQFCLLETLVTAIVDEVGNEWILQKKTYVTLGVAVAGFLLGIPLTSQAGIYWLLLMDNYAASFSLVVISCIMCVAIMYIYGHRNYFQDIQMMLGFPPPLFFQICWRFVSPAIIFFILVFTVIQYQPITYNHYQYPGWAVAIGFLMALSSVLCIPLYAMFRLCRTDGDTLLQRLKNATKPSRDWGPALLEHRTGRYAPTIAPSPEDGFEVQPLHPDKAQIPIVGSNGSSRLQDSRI

[7] = target: norepinephrine transporter (Homo sapiens, UniProt P23975); experiment: Selectivity panel, displacement of radioactive ligand; assay type: binding; conditions: 10 μM
norepinephrine transporter, sequence (P23975 whole entry, species assumed): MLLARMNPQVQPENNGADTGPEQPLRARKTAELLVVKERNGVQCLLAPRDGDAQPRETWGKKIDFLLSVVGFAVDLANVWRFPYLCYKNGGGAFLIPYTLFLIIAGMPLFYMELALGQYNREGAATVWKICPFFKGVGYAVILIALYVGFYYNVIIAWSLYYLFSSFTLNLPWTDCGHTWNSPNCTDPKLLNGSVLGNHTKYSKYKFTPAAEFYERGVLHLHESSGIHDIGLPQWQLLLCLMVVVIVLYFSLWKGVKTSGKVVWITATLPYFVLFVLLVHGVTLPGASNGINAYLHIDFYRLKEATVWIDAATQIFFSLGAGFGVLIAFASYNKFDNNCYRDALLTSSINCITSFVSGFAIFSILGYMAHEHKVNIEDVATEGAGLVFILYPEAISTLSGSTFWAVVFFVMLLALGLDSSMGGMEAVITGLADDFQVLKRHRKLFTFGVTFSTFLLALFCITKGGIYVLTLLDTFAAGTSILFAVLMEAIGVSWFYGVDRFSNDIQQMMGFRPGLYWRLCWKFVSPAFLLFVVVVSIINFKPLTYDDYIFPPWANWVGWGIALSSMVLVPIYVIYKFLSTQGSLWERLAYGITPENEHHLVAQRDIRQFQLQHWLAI

[8] = Stability in rat liver microsomes; assay type: in vitro ADME
Stability in rat plasma = assay type: in vitro ADME
[9] = target: α7 nicotinic acetylcholine receptors (Homo sapiens, UniProt P36544); experiment: Pain target screen, α7 nicotinic acetylcholine receptors
α7 nicotinic acetylcholine receptors, sequence (P36544 23-502): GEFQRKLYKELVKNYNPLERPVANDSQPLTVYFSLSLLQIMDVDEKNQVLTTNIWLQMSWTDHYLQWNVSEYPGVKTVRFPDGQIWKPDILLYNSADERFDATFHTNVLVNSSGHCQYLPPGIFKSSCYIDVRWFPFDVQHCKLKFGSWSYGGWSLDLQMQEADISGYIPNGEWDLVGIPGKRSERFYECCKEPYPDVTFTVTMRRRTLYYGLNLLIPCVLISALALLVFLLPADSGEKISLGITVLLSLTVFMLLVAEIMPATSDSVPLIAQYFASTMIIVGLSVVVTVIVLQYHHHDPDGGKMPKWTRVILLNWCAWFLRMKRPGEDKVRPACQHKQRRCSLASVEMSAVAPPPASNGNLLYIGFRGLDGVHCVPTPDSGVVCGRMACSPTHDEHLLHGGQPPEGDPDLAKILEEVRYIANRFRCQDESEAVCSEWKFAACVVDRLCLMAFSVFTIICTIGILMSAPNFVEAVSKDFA

CB1 = CB1 (Homo sapiens, UniProt P21554); experiment: Lipid receptor screen, agonist/antagonist
CB1, sequence (P21554 whole entry, species assumed): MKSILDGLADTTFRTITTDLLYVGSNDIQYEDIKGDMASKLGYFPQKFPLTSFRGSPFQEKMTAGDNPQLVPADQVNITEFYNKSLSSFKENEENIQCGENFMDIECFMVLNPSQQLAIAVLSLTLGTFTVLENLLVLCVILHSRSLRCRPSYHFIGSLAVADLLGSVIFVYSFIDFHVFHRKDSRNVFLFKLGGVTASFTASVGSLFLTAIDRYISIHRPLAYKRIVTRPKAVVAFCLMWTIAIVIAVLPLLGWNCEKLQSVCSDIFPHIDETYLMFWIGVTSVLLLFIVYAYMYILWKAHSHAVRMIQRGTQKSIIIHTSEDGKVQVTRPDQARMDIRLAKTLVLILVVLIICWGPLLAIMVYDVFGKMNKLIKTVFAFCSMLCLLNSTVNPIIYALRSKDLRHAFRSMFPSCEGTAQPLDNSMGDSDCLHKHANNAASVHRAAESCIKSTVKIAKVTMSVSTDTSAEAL

μOR = μOR (Homo sapiens, UniProt P35372); experiment: μOR agonist/antagonist activity in AtT20 cells expressing μORs; assay type: cell-based; conditions: 1 μM
μOR, sequence (P35372 whole entry): as the sequence (P35372 whole entry, species assumed) above

[10] = Stability in human plasma; assay type: in vitro ADME
GlyT2 [11] = target: T3, GlyT2; assay type: cell-based
[12] = following IV administration; cited from earlier work

activity as agonist or antagonist at sphingosine-1-phosphate receptor [3]: no activity | concentration of unbound drug (Cunbound) in brain at Cmax ([4]; 27.5 mg/kg ip): approximately 90 nM | Cmax Brain ([4]; single 27.5 mg/kg ip, Sprague Dawley rats): 1854 ng/g | displacement of radioactive ligands (Adrenergic α2A receptor): greater than 50% | activity as agonist or antagonist at CB2 (CB2): no activity | recovery of transport after washout (GlyT2 [5]): completely restored | displacement of radioactive ligands (μ opioid receptor (μOR)): greater than 50% | stability in human liver microsomes [6]: stable | half-life at 1 μM [6]: > 4.25 h | inhibition of GlyT1 glycine currents (human GlyT1b): little inhibition | displacement of radioactive ligands [7]: greater than 50% | stability in rat liver microsomes [8]: minimally degraded | half-life at 1 μM ([8]; rat, rat liver microsomes, pH 7.4): > 4.25 h | degradation in rat plasma (Stability in rat plasma): did not exhibit measurable degradation | inhibition of α7 nicotinic acetylcholine receptors [9]: no significant inhibition | activity as agonist or antagonist at CB1 (CB1): no activity | activity as a μOR agonist or antagonist (μOR): no activity | degradation in human plasma [10]: did not exhibit measurable degradation
SMILES: CCCCCCCC/C=C\CCCCCCCC(=O)N[C@H](CCCCN)C(=O)O.Cl [Compound 33, (2R)-6-amino-2-[[(Z)-octadec-9-enoyl]amino]hexanoic acid.HCl]
reversal of allodynia (analgesia) [2]: significant analgesia; also recorded: Significant reversal of allodynia | inhibition of Nav channels (Nav channels): no significant inhibition | inhibition of Cav channels (Cav channels): no significant inhibition | duration of side effects post injection (male Sprague Dawley rats): up to 15 min | side effects (male Sprague Dawley rats): Mild side effects

stability in human liver microsomes [6]: stable | half-life at 1 μM [6]: > 4.25 h | inhibition of GlyT1 glycine currents (human GlyT1b): not reduced | stability in rat liver microsomes [8]: rapidly metabolised | fold improvement of degradation half-life (Stability in rat plasma; rat plasma, relative to 4): ~ 3 fold | mechanism of GlyT2 inhibition (GlyT2 [11]): non-competitive inhibitor | half-life at 1000 ng/mL ([10]; human, human plasma (pooled)): > 17 h
SMILES: CCCCCCCC/C=C\CCCCCCCC(=O)N[C@@H](CCCCN)C(=O)O.Cl [Compound 32, (2S)-6-amino-2-[[(Z)-octadec-9-enoyl]amino]hexanoic acid.HCl]

fold less potent than 10 at GlyT2 (human GlyT2a; relative to 10): 2 fold
SMILES: CCCCCCCC/C=C\CCCCCCCC(=O)N[C@@H](CCCC)C(=O)O [Compound 14, (2S)-2-[[(Z)-octadec-9-enoyl]amino]hexanoic acid]

fold improvement in GlyT2 activity (human GlyT2a; relative to 14): ~ 9 fold
SMILES: CCCCCCCC/C=C\CCCCCCCC(=O)N[C@@H](CCSC)C(=O)O [Compound 12, (2S)-4-methylsulfanyl-2-[[(Z)-octadec-9-enoyl]amino]butanoic acid]

Continued, compound first:

SMILES: CCCCCCCC/C=C\CCCCCCCC(=O)NCCCCCN.Cl [Compound 37, (Z)-N-(5-aminopentyl)octadec-9-enamide.HCl]
fold reduction of GlyT2 potency (human GlyT2a; relative to 32): ~ 22 fold

SMILES: COc1cc(C(=O)NCC2(N(C)C)CCCC2)cc(OC)c1OCc1ccccc1 [Compound 2, ORG25543]
IC50 (GlyT2 [1]): 16 nM | reversal of allodynia (analgesia) [2]: Non-significant reversal of allodynia | activity at GlyT1 (GlyT1): no appreciable activity | animals with side effects (male Sprague Dawley rats): 4 out of the 6 | duration of side effects post injection (male Sprague Dawley rats): up to 60 min | side effects (male Sprague Dawley rats): more severe side effects

SMILES: CCCCCCCC/C=C\CCCCCCCC(=O)NCC(=O)O [Compound 4, N-oleoyl glycine]
effect on GlyT1 (GlyT1; concentrations up to 10 μM): no effect

SMILES: CCCCC/C=C\C/C=C\C/C=C\C/C=C\CCCC(=O)NCC(=O)O [Compound 5, N-arachidonyl glycine]
activity at GlyT1 (GlyT1): little activity

SMILES: N[C@@H](COC(c1cccc(F)c1)c1ccccc1OCc1ccccc1)C(=O)O (stereo partly shown) [Compound 1, ALX1393]
IC50 (GlyT2 [1]): 100 nM | ratio of unbound drug in brain and plasma (Kp,uu) [12]: 0.05
